# Experimental data taken from ChEMBL document CHEMBL3632564, “Synthesis of 17-membered azalides from a 16-membered macrolide utilizing amide-selective silane reduction” (2015).
# Legend:
# Format in all cases: functional
# [1] = system: Streptococcus pneumoniae; experiment: Antibacterial activity against penicillin-intermediate Gram-positive Streptococcus pneumoniae TY-5745 after 18 hrs by agar dilution method; conditions: TY-5745, 18 h
# [2] = system: Haemophilus influenzae; experiment: Antibacterial activity against beta-lactamase-negative ampicillin-resistant Gram-negative Haemophilus influenzae ME587 after 18 hrs by agar dilution method; conditions: ME587, 18 h
# [3] = system: Streptococcus pneumoniae; experiment: Antibacterial activity against penicillin-susceptible Gram-positive Streptococcus pneumoniae S-223 after 18 hrs by agar dilution method; conditions: S-223, 18 h
# [4] = system: Streptococcus pneumoniae; experiment: Antibacterial activity against penicillin-resistant Gram-positive Streptococcus pneumoniae JPS317 after 18 hrs by agar dilution method; conditions: JPS317, 18 h
structure (smiles),measurement,setting,value
CC[C@H]1OC(=O)CC[C@H](C)[C@@H](O[C@@H]2O[C@H](C)C[C@H](N(C)C)[C@H]2O)[C@@H](CC=O)C[C@@H](C)CN(C)CC/C(C)=C/[C@@H]1CO,MIC,[1],16 µg/mL
same,MIC,[2],4 µg/mL
same,MIC,[3],8 µg/mL
same,MIC,[4],8 µg/mL
CC[C@H]1OC(=O)CC[C@H](C)[C@@H](O[C@@H]2O[C@H](C)C[C@H](N(C)C)[C@H]2O)[C@@H](CC=O)C[C@@H](C)N(C)CCC/C(C)=C/[C@@H]1CO,MIC,[1],32 µg/mL
same,MIC,[2],4 µg/mL
same,MIC,[3],8 µg/mL
same,MIC,[4],8 µg/mL
CC[C@H]1OC(=O)CC[C@H](C)[C@@H](O[C@@H]2O[C@H](C)C[C@H](N(C)C)[C@H]2O)[C@@H](CC=O)C[C@@H](C)N(C)C/C=C/C(C)=C/[C@@H]1CO,MIC,[1],32 µg/mL
same,MIC,[2],4 µg/mL
same,MIC,[3],16 µg/mL
same,MIC,[4],32 µg/mL
CC[C@H]1OC(=O)CC[C@H](C)[C@@H](O[C@@H]2O[C@H](C)C[C@H](N(C)C)[C@H]2O)[C@@H](CC=O)C[C@@H](C)C(=O)/C=C/C(C)=C/[C@@H]1CO,MIC,[1],1 µg/mL
same,MIC,[2],1 µg/mL
same,MIC,[3],0.25 µg/mL
same,MIC,[4],0.5 µg/mL
CC[C@H]1OC(=O)[C@H](C)[C@@H](O[C@H]2C[C@@](C)(OC)[C@@H](O)[C@H](C)O2)[C@H](C)[C@@H](O[C@@H]2O[C@H](C)C[C@H](N(C)C)[C@H]2O)[C@](C)(O)C[C@@H](C)CN(C)[C@H](C)[C@@H](O)[C@]1(C)O [AZITHROMYCIN],MIC,[1],1 µg/mL
same,MIC,[2],1 µg/mL
same,MIC,[3],0.25 µg/mL
same,MIC,[4],8 µg/mL
